We go through 20 compounds from PubChem BioAssay AID296 (DTP/NCI, 2004).

Where “and” joins values, the source holds several entries; their conditions need not be identical. Equal entries are not always repeated. Results filed as inconclusive are left out.

In this test the test system is MX-1 breast xenograft, nude mice, tumor weight T/C. The experiment in a line: NCI In Vivo Anticancer Drug Screen. Data for tumor model Human Mammary Carcinoma MX-1 Xenograft (intrarenal inoculation) in NU/NU Swiss (nude) mice. The note with it: endpoint: mean tumor weight change, higher = larger tumour. The procedure, abridged:
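Compound dosed to mice with transplantable tumor; vehicle group as control. Endpoint survival or tumour size, reported as T/C.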

[1] abbreviates: dose: 12.5 mg/kg/injection, schedule: Q04DX003 (sc), vehicle: saline.
Setting [2] is: dose: 25.0 mg/kg/injection, schedule: Q04DX003 (sc), vehicle: saline.
Setting [3] is: dose: 100.0 mg/kg/injection, schedule: Q04DX003 (sc), vehicle: suspension in saline.
[4] abbreviates: dose: 300.0 mg/kg/injection, schedule: Q04DX003 (sc), vehicle: suspension in saline.
[5] abbreviates: dose: 600.0 mg/kg/injection, schedule: Q04DX003 (sc), vehicle: suspension in saline.
Where [6] appears, read: dose: 150.0 mg/kg/injection, schedule: Q04DX003 (sc), vehicle: Klucel (hydroxypropylcellulose) (HPC).
Where [7] appears, read: dose: 25.0 mg/kg/injection, schedule: Q04DX003 (sc), vehicle: suspension in saline.
Where [8] appears, read: dose: 50.0 mg/kg/injection, schedule: Q04DX003 (sc), vehicle: saline.
The mark [9] stands for this setting: dose: 6.0 mg/kg/injection, schedule: Q04DX003 (sc), vehicle: saline.
Setting [10] is: dose: 75.0 mg/kg/injection, schedule: Q04DX003 (sc), vehicle: suspension in saline.
Where [11] appears, read: dose: 150.0 mg/kg/injection, schedule: Q04DX003 (sc), vehicle: suspension in saline.
Setting [12] is: dose: 400.0 mg/kg/injection, schedule: Q04DX003 (sc), vehicle: Klucel (hydroxypropylcellulose) (HPC).
Where [13] appears, read: dose: 800.0 mg/kg/injection, schedule: Q04DX003 (sc), vehicle: Klucel (hydroxypropylcellulose) (HPC).

In the case of `O=c1[nH]cnc2c1ccn2C1OC(CO)C(O)C1O` (configuration not stated), the T/C reads like this: under setting [1], 57 % of control; under setting [2], 71 % of control.
With `O=CC(S)CO` (configuration not stated), the T/C under setting [3] was 151 % of control.
For the compound `C=C(C(=O)O)C(N)C(=O)O` (configuration not stated), the T/C by setting is: under setting [4], 96 % of control; under setting [5], 78 % of control; (dose: 1200.0 mg/kg/injection, schedule: Q04DX003 (sc), vehicle: suspension in saline) 88 % of control.
On to `C#C[C@]1(O)CC[C@H]2[C@@H]3CCc4cc(O)ccc4[C@H]3CC[C@@]21C`, for which the T/C is 150 % of control under setting [6]; 94 % of control (dose: 300.0 mg/kg/injection, schedule: Q04DX003 (sc), vehicle: Klucel (hydroxypropylcellulose) (HPC)); 80 % of control (dose: 600.0 mg/kg/injection, schedule: Q04DX003 (sc), vehicle: Klucel (hydroxypropylcellulose) (HPC)); 122 % of control (dose: 1200.0 mg/kg/injection, schedule: Q04DX003 (sc), vehicle: Klucel (hydroxypropylcellulose) (HPC)).
Consider `O=C1c2ccccc2C(=O)c2c(NCCNCCO)ccc(O)c21`, for which the T/C was 95 % of control under setting [7]; 92 % of control under setting [8]; 69 % of control (dose: 100.0 mg/kg/injection, schedule: Q04DX003 (sc), vehicle: saline); 69 % of control and 78 % of control under setting [3]; 63 % of control (dose: 200.0 mg/kg/injection, schedule: Q04DX003 (sc), vehicle: saline); 78 % of control (dose: 200.0 mg/kg/injection, schedule: Q04DX003 (sc), vehicle: suspension in saline). In addition, the T/C reads like this: (dose: 400.0 mg/kg/injection, schedule: Q04DX003 (sc), vehicle: saline) 37 % of control; (dose: 400.0 mg/kg/injection, schedule: Q04DX003 (sc), vehicle: suspension in saline) 98 % of control.
Regarding `ClCCCN1CCCCC1CCl` (configuration not stated), the T/C by setting is: under setting [1], 51 % of control; under setting [2], 1 % of control; under setting [8], 3 % of control.
On to `Cc1cc(NCCCN(C)C)c2ccc3c(ccc4c(NCCCN(C)C)cc(C)nc43)c2n1`, for which the T/C is 77 % of control (dose: 9.38 mg/kg/injection, schedule: Q04DX003 (sc), vehicle: saline with Tween-80) and 65 % of control (dose: 18.75 mg/kg/injection, schedule: Q04DX003 (sc), vehicle: saline with Tween-80).
For the compound `O=C1C(=O)c2ccccc2C(O)=C1CC=C(Cl)Cl`, the T/C runs as follows: (dose: 25.0 mg/kg/injection, schedule: Q01DX010 (sc), vehicle: water) 68 % of control; (dose: 50.0 mg/kg/injection, schedule: Q01DX010 (sc), vehicle: water) 110 % of control; (dose: 100.0 mg/kg/injection, schedule: Q01DX010 (sc), vehicle: water) 109 % of control; (dose: 200.0 mg/kg/injection, schedule: Q01DX010 (sc), vehicle: water) 106 % of control.
In the case of `NC(=O)c1cn(C2OC(CO)C(O)C2O)c2ncnc(N)c12` (configuration not stated), the T/C is 77 % of control (dose: 1.5 mg/kg/injection, schedule: Q04DX003 (sc), vehicle: saline); 61 % of control (dose: 3.0 mg/kg/injection, schedule: Q04DX003 (sc), vehicle: saline); 40 % of control under setting [9].
For the compound `c1ccc2c(NCCCCCCNc3c4ccccc4nc4ccccc34)c3ccccc3nc2c1`, the T/C runs as follows: (dose: 10.0 mg/kg/injection, schedule: Q01DX010 (sc), vehicle: Klucel (hydroxypropylcellulose) (HPC)) 87 % of control; (dose: 10.0 mg/kg/injection, schedule: Q04DX003 (sc), vehicle: Klucel (hydroxypropylcellulose) (HPC)) 297 % of control; (dose: 20.0 mg/kg/injection, schedule: Q01DX010 (sc), vehicle: Klucel (hydroxypropylcellulose) (HPC)) 58 % of control; (dose: 20.0 mg/kg/injection, schedule: Q04DX003 (sc), vehicle: Klucel (hydroxypropylcellulose) (HPC)) 241 % of control; (dose: 40.0 mg/kg/injection, schedule: Q04DX003 (sc), vehicle: Klucel (hydroxypropylcellulose) (HPC)) 322 % of control; (dose: 80.0 mg/kg/injection, schedule: Q04DX003 (sc), vehicle: Klucel (hydroxypropylcellulose) (HPC)) 199 % of control.
As for `Nc1ncnc2c(C3OC(CO)C(O)C3O)[nH]nc12` (configuration not stated), the T/C (dose: 75.0 mg/kg/injection, schedule: Q04DX003 (sc), vehicle: Klucel (hydroxypropylcellulose) (HPC)) is -100 % of control; the T/C under setting [10] was 5 % of control; the T/C under setting [6] is -100 % of control; the T/C under setting [11] is 5 % of control; the T/C under setting [4] was -79 % of control.
Turning to `Cc1ncc(CNC(=O)N(CCCl)N=O)c(N)n1`, the T/C by setting is: (dose: 9.38 mg/kg/injection, schedule: Q04DX003 (sc), vehicle: saline) 43 % of control; (dose: 18.75 mg/kg/injection, schedule: Q04DX003 (sc), vehicle: saline) 28 % of control.
`CCCCCC[C@H]([C@H](C)O)n1cnc2c(N)ncnc21`: the T/C was 43 % of control (dose: 50.0 mg/kg/injection, schedule: Q01DX010 (sc), vehicle: Klucel (hydroxypropylcellulose) (HPC)); 116 % of control (dose: 100.0 mg/kg/injection, schedule: Q01DX010 (sc), vehicle: Klucel (hydroxypropylcellulose) (HPC)); 94 % of control (dose: 200.0 mg/kg/injection, schedule: Q01DX010 (sc), vehicle: Klucel (hydroxypropylcellulose) (HPC)).
On to `COc1cccc2c1C(=O)c1c(O)c3c(c(O)c1C2=O)C[C@@](O)(C(=O)COC(=O)c1cccnc1)C[C@@H]3OC1CC(N)C(O)C(C)O1` (some centres not stated), for which the T/C is 52 % of control and 58 % of control under setting [9]; 15 % of control and 26 % of control (dose: 12.0 mg/kg/injection, schedule: Q04DX003 (sc), vehicle: saline); 20 % of control (dose: 24.0 mg/kg/injection, schedule: Q04DX003 (sc), vehicle: saline).
Take `CC(=O)OCN(C)C=O`: the T/C was 100 % of control (dose: 300.0 mg/kg/injection, schedule: Q01DX010 (sc), vehicle: water); 54 % of control (dose: 600.0 mg/kg/injection, schedule: Q01DX010 (sc), vehicle: water); 18 % of control (dose: 1200.0 mg/kg/injection, schedule: Q01DX010 (sc), vehicle: water); -8 % of control (dose: 2400.0 mg/kg/injection, schedule: Q01DX010 (sc), vehicle: water).
For `CN=C(N)N/N=C(\C)c1ccc2c(c1)Cc1ccccc1-2`, the T/C is 105 % of control (dose: 150.0 mg/kg/injection, schedule: Q04DX003 (sc), vehicle: saline with Tween-80); 115 % of control (dose: 300.0 mg/kg/injection, schedule: Q04DX003 (sc), vehicle: saline with Tween-80); 105 % of control (dose: 600.0 mg/kg/injection, schedule: Q04DX003 (sc), vehicle: saline with Tween-80); 191 % of control (dose: 1200.0 mg/kg/injection, schedule: Q04DX003 (sc), vehicle: saline with Tween-80).
For `COc1ccc2[nH]c3ccc4cc[n+](CCN5CCC(C6CCN(CC[n+]7ccc8ccc9[nH]c%10ccc(OC)cc%10c9c8c7)CC6)CC5)cc4c3c2c1`, the T/C is 108 % of control (dose: 200.0 mg/kg/injection, schedule: Q04DX003 (sc), vehicle: Klucel (hydroxypropylcellulose) (HPC)); 80 % of control under setting [12]; 99 % of control under setting [13]; 80 % of control (dose: 1600.0 mg/kg/injection, schedule: Q04DX003 (sc), vehicle: Klucel (hydroxypropylcellulose) (HPC)).
`O=C(Nc1ccc(N=C=S)cc1Cl)c1cc(Cl)cc(Cl)c1O`: the T/C by setting is: (dose: 25.0 mg/kg/injection, schedule: Q04DX003 (sc), vehicle: Klucel (hydroxypropylcellulose) (HPC)) 105 % of control; (dose: 50.0 mg/kg/injection, schedule: Q04DX003 (sc), vehicle: Klucel (hydroxypropylcellulose) (HPC)) 79 % of control; (dose: 100.0 mg/kg/injection, schedule: Q04DX003 (sc), vehicle: Klucel (hydroxypropylcellulose) (HPC)) 117 % of control; under setting [12], 50 % of control; under setting [13], 48 % of control.
Take `NC(=O)c1ncn2c(=O)n(CCCl)nnc12`: the T/C under setting [7] was 69 % of control and the T/C (dose: 50.0 mg/kg/injection, schedule: Q04DX003 (sc), vehicle: suspension in saline) is 30 % of control.
Regarding `c1cc[c]([Sn]([NH]c2ncnc3[nH]cnc23)([NH]c2ncnc3[nH]cnc23)[c]2ccccc2)cc1`, the T/C is, setting by setting: under setting [10], 76 % of control; under setting [11], 109 % of control; under setting [4], 111 % of control; under setting [5], 76 % of control.
